Columns and labels:
purine receptors = target: T1, purine receptors (Cavia porcellus, UniProt P47745); experiment: Purine receptor antagonism in guinea pig ileum twitch test (agonist 2-chloroadenosine, Schild regression); settings: for slope (Schild regression): value in brackets beside pA2, guinea pig ileum; for Kb: vs 2-chloroadenosine, Schild regression, may be considered the pKb, read-out: pA2 Guinea pig ileum (converted)
T1 construct: Ilea were removed from sacrificed guinea pigs and placed in organ baths; from tissue; host or cells: guinea pig ileum
T1 sequence (P47745 1-326): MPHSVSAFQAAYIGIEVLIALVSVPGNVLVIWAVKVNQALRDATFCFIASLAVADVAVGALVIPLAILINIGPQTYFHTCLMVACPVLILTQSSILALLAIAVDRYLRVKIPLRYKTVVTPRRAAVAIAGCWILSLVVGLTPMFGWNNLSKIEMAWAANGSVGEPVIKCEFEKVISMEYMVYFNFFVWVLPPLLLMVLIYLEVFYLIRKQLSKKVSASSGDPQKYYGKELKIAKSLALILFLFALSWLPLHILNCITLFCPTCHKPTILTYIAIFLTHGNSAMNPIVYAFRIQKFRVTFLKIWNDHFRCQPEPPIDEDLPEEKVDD
Protocol: Accordingly, a representative number of compounds of the present invention were tested for their ability to antagonise the purine receptors using the guinea pig ileum test system.
Ilea were removed from sacrificed guinea pigs and placed in organ baths containing oxygenated Krebs-Henseleit buffer. After equilibration, the ilea were stimulated to contract (twitch contraction) using an electrical field-stimulus of 0.1 Hz, 0.05 ms duration and maximal voltage. Under these conditions, the twitch contraction results from the release of acetylcholine.
Concentration response curves to the purine agonist, 2-chloroadenosine, were determined first in the absence and then in the presence of multiple concentrations of the compounds of the invention. One concentration of each compound was used per tissue. Quantification of purine receptor antagonism was accomplished using the Schild regression technique, i.e. plots of log (dose-ratio-1) vs log compound concentration, and the pA2 determined by regression of the data points to the x-intercept, where log (dose-ratio-1) is zero.

[1] = Standard LD50 test, intraperitoneal, mice; settings: mouse, in vivo, ip
Protocol: The toxicity of a representative number of compounds of the present invention was determined by using the standard LD50 test.

[2] = target: T2, ADO-induced prolongation of the atrio-to-His bundle conduction time (Cavia porcellus, UniProt P47745); experiment: Inhibition of ADO-induced prolongation of the atrio-to-His bundle conduction time in isolated, perfused guinea-pig heart; settings: five animals; 5 μm ADO infusion; Eadie-Scatchard plot of %INH; read-out: mean Kd(50)
T2 construct: isolated, perfused guinea-pig heart preparations; from tissue; host or cells: isolated, perfused guinea-pig heart
T2 sequence (P47745 1-326): T1 sequence (P47745 1-326)
Protocol: The ability of (E)-4-(1,2,3,6-tetrahydro-1,3-dimethyl-2,6-dioxo-9H-purin-8-yl)cinnamic acid to inhibit ADO-induced prolongation of the atrio-to-His bundle conduction time and, thus, its potential for the treatment of cardiac disorders including heart block, was evaluated in isolated, perfused guinea-pig heart preparations.
Male and female guinea-pigs were sacrificed by a blow to the head, and their hearts were quickly removed. The heart was then hung on a retro-grade aortic infusion apparatus. […]
Pacing was initiated at a rate that ensured one to one capture and later was set to 2-3 Hz. […] Two antagonists were evaluated per guinea-pig. […]
A.V. conduction times were measured from the HBE and LAE. […] Differences were then calculated by subtracting the control interval in question. Percentage ADO prolongation inhibition (%INH) was calculated by subtracting the A-A difference from the ADO difference, dividing by ADO difference, and multiplying by 100, thus %INH=(ADO diff.-ant. diff.)/ADO diff.*100.
The Kd(50) was then evaluated by an Fadie-Scatchard plot, where (%INH)/(antagonist conc.) was plotted on the ordinate and %INH on the abscissa. […]

Row | SMILES | slope (Schild regression) (purine receptors) | Kb (purine receptors) | LD50 [1] | Kd [2]
1 | Cn1c(=O)c2nc(-c3ccc(/C=C/C(=O)O)cc3)[nH]c2n(Cc2ccccc2)c1=O [Example 18, (E)-4-(3-benzyl-1,2,3,6-tetrahydro-1-methyl-2,6-dioxo-9H-purin-8-yl)cinnamic acid] | 0.9 | 0.0794 µM | > 100 mg/kg | 
2 | Cn1c(=O)c2nc(-c3ccc(/C=C/C(=O)O)cc3)[nH]c2n(C)c1=O [Example 1, (E)-4-(1,2,3,6-tetrahydro-1,3,-dimethyl-2,6-dioxo-9H-purin-8-yl)cinnamic acid] |  |  | > 500 mg/kg | 0.19 µM
3 | O=C(O)/C=C/c1ccc(-c2nc3c(=O)n(Cc4ccccc4)c(=O)n(Cc4ccccc4)c3[nH]2)cc1 [Example 15, (E)-4-(1,3-dibenzyl-1,2,3,6-tetrahydro-2,6-dioxo-9H-purin-8-yl)cinnamic acid] | 0.9 | 0.0794 µM |  | 
4 | CCCCn1c(=O)n(C)c(=O)c2nc(-c3ccc(/C=C/C(=O)O)cc3)[nH]c21 [Example 16, (E)-4-(3-butyl-1,2,3,6-tetrahydro-1-methyl-2,6-dioxo-9H-purin-8-yl)cinnamic acid] |  |  | > 100 mg/kg | 
5 | Cn1c(=O)c2[nH]cnc2n(C)c1=O [THEOPHYLLINE, 1,3-dimethylxanthine, reference compound] | 1.1 |  |  | 
6 | CC(C)Cn1c(=O)c2nc(-c3ccc(/C=C/C(=O)O)cc3)[nH]c2n(CC(C)C)c1=O [Example 19, (E)-4-(1,2,3,6-tetrahydro-1,3-diisobutyl-2,6-dioxo-9H-purin-8-yl)cinnamic acid] | 1.0 | 0.0355 µM |  | 
7 | CCCn1c(=O)n(C)c(=O)c2nc(-c3ccc(/C=C/C(=O)O)cc3)[nH]c21 [Example 11, (E)-4-(1,2,3,6-tetrahydro-1-methyl-2,6-dioxo-3-propyl-9H-purin-8-yl)cinnamic acid] | 1.0 | 0.1 µM |  | 
8 | CCCCn1c(=O)c2nc(-c3ccc(/C=C/C(=O)O)cc3)[nH]c2n(CCCC)c1=O [Example 14, (E)-4-(1,3-dibutyl-1,2,3,6-tetrahydro-2,6-dioxo-9H-purin-8-yl)cinnamic acid] | 1.0 | 0.0316 µM | > 100 mg/kg | 
9 | CCCn1c(=O)c2nc(-c3ccc(/C=C/C(=O)O)cc3)[nH]c2n(CCC)c1=O [Example 6, (E)-4-(1,2,3,6-tetrahydro-2,6-dioxo-1,3-dipropyl-9H-purin-8-yl)cinnamic acid] | 0.9 | 0.02 µM | > 500 mg/kg | 
10 | CC(C)Cn1c(=O)[nH]c(=O)c2nc(-c3ccc(/C=C/C(=O)O)cc3)[nH]c21 [Example 10, (E)-4-(1,2,3,6-tetrahydro-3-isobutyl-2,6-dioxo-9H-purin-8-yl)cinnamic acid] |  |  | > 100 mg/kg | 
11 | CC(C)Cn1c(=O)n(C)c(=O)c2nc(-c3ccc(/C=C/C(=O)O)cc3)[nH]c21 [Example 12, (E)-4-(1,2,3,6-tetrahydro-3-isobutyl-1-methyl-2,6-dioxo-9H-purin-8-yl)cinnamic acid] |  |  | > 100 mg/kg | 
